The values that follow come from patent EP1169036B1, “ANTI-VIRAL USES OF LEFLUNOMIDE PRODUCTS” (priority 1998, dated 1999).

Like-named read-outs stand apart in the source and are kept apart here.

The subject of data set [1] is rat CMV (RCMV RA67, Maastricht strain). The experiment in a line: Viral load in nude rats inoculated with rat CMV, plaque assay of tissue homogenates. The data set is classed as in vivo, immunodeficient nude rats. Conditions: leflunomide 15 mg/kg/day for 14 days, 14 days post-inoculation.
A further data set has as its system hepatitis C. The experiment in a line: Clinical treatment of a patient with chronic hepatitis C, viral load by quantitative PCR. The data set is classed as in vivo, human. On the procedure: The patient is a person who received a liver transplant in January 1990 for hepatitis C. Over the following nine years they developed indolent hepatitis C with mildly elevated liver enzymes. Because of slowly progressive kidney impairment, presumably related to a combination of chronic hepatitis C and long term cyclosporine A treatment, they were started on leflunomide treatment. […] After an initial leflunomide loading dose of 300 mg daily for two days, a maintenance dose of 50 mg daily was started.
As the new treatment regimen was implemented, their kidney function improved; their serum creatinine fell from 3.6 mg/dl to 2.2 mg/dl and their BUN fell from 94 mg/dl to 55 mg/dl. Just before leflunomide was begun their hepatitis C viral load in peripheral blood was 3,120,000 copies, measured by quantitative PCR (Quest Diagnostics). After six weeks of therapy with leflunomide, their hepatitis C viral load had fallen to 1,480,000 copies, measured by the same PCR methodology.

Data set [2] has as its system CMV strain VHL/E or strain BUR/E. The data set is classed as cell-based. As to conditions: HUVEC, A771726 200 µM, CsA 100 ng/ml, FK 506 1 ng/ml.
For data set [3] the following is noted: in vivo; cited from earlier work.
In data set [4] the test system is human lung carcinoma (A549) cells. In words: cells. Type of data set: cell-based. As to conditions: read-out: CPE Inhibition test IC50.
Data set [5] has as its system Rhinovirus Type 5. The experiment in a line: Neutral red uptake test. The data set is classed as cell-based. As to conditions: Enterovirus, read-out: Neutral Red Uptake test EC50. From the text:
Environment. Microbiol, 31:35-38, 1976).

For data set [6], the system named is Measles Virus. In words: microbe, parasite or virus in culture. Type of data set: cell-based. Conditions: Measles morbillivirus, CV-1; read-out: Neutral Red Uptake test EC50.
Data set [7] concerns uninfected cells. The experiment in a line: Cytotoxicity, neutral red uptake by toxicity control cells (rhinovirus host cells, not named). Type of data set: cell-based. As to conditions: read-out: Neutral Red Uptake test IC50. On the procedure: (§1) Cytotoxicity of each test compound is also evaluated as follows. In the initial CPE inhibition tests, two wells of uninfected cells treated with each concentration of test compound are run in parallel with the infected, treated wells. When the CPE is determined microscopically, the toxicity control cells are also examined microscopically for any changes in cell appearance compared to normal uninfected, untreated control cells. Changes, which may manifest as enlargement, granularity, ragged edges, filmy appearance, rounding, detachment from the surface of the well, or other changes, are given a designation of T (100% toxic), PVH (partially toxic-very heavy-80%), PH (partially toxic-heavy-60%), P (partially toxic-40%), PS (partially toxic-slight-20%) or 0 (no toxicity-0%) in accordance with the degree of cytotoxicity observed. […] A neutral red IC50 is also determined based on uptake of neutral red dye by the toxicity control cells.

Data set [8] relates to Respiratory Syncytial Virus A. In words: microbe, parasite or virus in culture. The data set is classed as cell-based. As to conditions: human respiratory syncytial virus, MA104; read-out: Neutral Red Uptake test EC50.
The test system of data set [9] is Madin Darby canine kidney (MDCK) cells. The experiment in a line: cells. Conditions: Canis lupus familiaris, cytotoxic concentration, positive control drug = ribavirin, read-out: Neutral Red Uptake test IC50. Type of data set: cell-based.
The test system of data set [10] is Adenovirus Type 1. In words: microbe, parasite or virus in culture. The data set is classed as cell-based. Conditions: Human mastadenovirus C, A549; read-out: Neutral Red Uptake test EC50.
The test system of data set [11] is Adenovirus Type 1. The experiment in a line: microbe, parasite or virus in culture. The data set is classed as cell-based. As to conditions: Human mastadenovirus C, A549; read-out: CPE Inhibition test EC50.
Data set [12] deals with Respiratory Syncytial Virus A. In words: microbe, parasite or virus in culture. The data set is classed as cell-based. As to conditions: human respiratory syncytial virus, MA104; read-out: CPE Inhibition test EC50.
The test system of data set [13] is Measles Virus. In words: microbe, parasite or virus in culture. The data set is classed as cell-based. Conditions: Measles morbillivirus, CV-1; read-out: CPE Inhibition test EC50.
Data set [14] concerns Rhinovirus Type 5. The experiment in a line: microbe, parasite or virus in culture. As to conditions: Enterovirus; read-out: CPE Inhibition test EC50. The data set is classed as cell-based.
Data set [15] deals with uninfected cells. The experiment in a line: Cytotoxicity, microscopic reading of uninfected cells in the CPE inhibition test (rhinovirus host cells, not named). Type of data set: cell-based. On the procedure: as §1
The test system of data set [16] is African green monkey kidney (CV-1) cells. The experiment in a line: cells. The data set is classed as cell-based. As to conditions: Chlorocebus sabaeus, read-out: CPE Inhibition test IC50.
Data set [17] deals with Parainfluenza Type 3 Virus. In words: organism not typed. Type of data set: cell-based. Conditions: MA104; read-out: Neutral Red Uptake test EC50.
In data set [18] the test system is African green monkey kidney (CV-1) cells. The experiment in a line: cells. As to conditions: Chlorocebus sabaeus, read-out: Neutral Red Uptake test IC50. The data set is classed as cell-based.
In data set [19] the test system is Parainfluenza Type 3 Virus. The experiment in a line: organism not typed. As to conditions: MA104; read-out: CPE Inhibition test EC50. The data set is classed as cell-based.
Data set [20] deals with Madin Darby canine kidney (MDCK) cells. In words: cells. Type of data set: cell-based. Conditions: Canis lupus familiaris, cytotoxic concentration, positive control drug = ribavirin, read-out: CPE Inhibition test IC50.
Data set [21] has as its system African green monkey kidney (MA-104) cells. The experiment in a line: cells. Type of data set: cell-based. Conditions: Chlorocebus sabaeus, MA104, cytotoxic concentration, positive control drug = ribavirin, read-out: CPE Inhibition test IC50.
Data set [22] has the same test system. In words: Cytotoxicity, neutral red uptake by toxicity control cells. Conditions: Chlorocebus sabaeus, read-out: Neutral Red Uptake test IC50. The data set is classed as cell-based.
The next data set relates to CMV DNA. The data set is classed as cell-based. As to conditions: CMV-infected HFF (100 µM A771726) , identical in HUVEC (200 µM); 1 mM PFA; 48 hours.
Another data set has as its target T1, CMV DNA polymerase (Human cytomegalovirus, UniProt P08546).
T1 construct: Crude protein extracts prepared from CMV-infected HUVEC or HFF; endogenous in cells; host or cells: HUVEC infected with CMV VHL/E or BUR/E, and HFF infected with CMV P8; Cells were sonicated and the clarified crude lysate was used
The data set is classed as biochemical. Conditions: extracts of VHL/E-infected HUVEC or P8-infected HFF; PFA result at 1 mM.

The next data set has as its system CMV strain VHL/E. The experiment in a line: Immunohistochemical staining of CMV proteins in infected HUVEC. The data set is classed as cell-based. On the procedure:
Experiments were conducted to determine at which point in the viral replication cycle leflunomide exerts its inhibitory effects. Immediately upon penetration of the host cell, CMV lower matrix protein pp65, a component of the viral tegument, translocates to the cell nucleus. Although the nuclear function of pp65 remains to be resolved, another tegument protein (pp71) that migrates in a similar manner acts in concert with cellular proteins to promote rapid transcription of immediate early (IE) viral genes. IE gene products are primarily regulatory, activating early gene transcription, whose products are essential for viral DNA replication. Activation of late genes, which code primarily for structural protein components of the virion, occurs late in the replicative cycle and is dependent upon viral DNA replication.
To localize potential A771726-induced lesions in this temporal series of events, a cross section of CMV proteins in infected cells was first visualized by immunohistochemical staining as follows. CMV strain VHL/E-inoculated HUVEC monolayers incubated in the presence or absence of 200 µM A771726 or 1 mM phosphonoformate (PFA) (as a positive control for late antigen inhibition) were fixed at various intervals and stained with mAb specific for pp65, 72 kD IE1, or late structural glycoprotein B (gB). […]

Setting [23] is: run with Respiratory Syncytial Virus A.
Setting [24] is: MA104, cytotoxic concentration, run with Parainfluenza Type 3 Virus, positive control drug = ribavirin.

T1 sequence (P16790 whole entry): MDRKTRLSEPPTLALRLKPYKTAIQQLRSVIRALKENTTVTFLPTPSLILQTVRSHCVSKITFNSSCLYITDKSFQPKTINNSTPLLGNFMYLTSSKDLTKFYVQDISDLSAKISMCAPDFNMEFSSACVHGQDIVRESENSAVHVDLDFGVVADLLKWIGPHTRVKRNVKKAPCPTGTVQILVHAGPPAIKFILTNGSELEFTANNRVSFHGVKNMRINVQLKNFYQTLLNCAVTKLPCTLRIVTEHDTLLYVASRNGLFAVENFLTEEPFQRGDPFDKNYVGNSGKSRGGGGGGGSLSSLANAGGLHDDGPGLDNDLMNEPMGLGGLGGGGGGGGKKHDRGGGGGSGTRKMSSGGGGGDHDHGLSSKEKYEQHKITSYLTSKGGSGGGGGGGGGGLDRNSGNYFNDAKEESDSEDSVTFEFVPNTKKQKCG
T1 sequence (P08546 whole entry): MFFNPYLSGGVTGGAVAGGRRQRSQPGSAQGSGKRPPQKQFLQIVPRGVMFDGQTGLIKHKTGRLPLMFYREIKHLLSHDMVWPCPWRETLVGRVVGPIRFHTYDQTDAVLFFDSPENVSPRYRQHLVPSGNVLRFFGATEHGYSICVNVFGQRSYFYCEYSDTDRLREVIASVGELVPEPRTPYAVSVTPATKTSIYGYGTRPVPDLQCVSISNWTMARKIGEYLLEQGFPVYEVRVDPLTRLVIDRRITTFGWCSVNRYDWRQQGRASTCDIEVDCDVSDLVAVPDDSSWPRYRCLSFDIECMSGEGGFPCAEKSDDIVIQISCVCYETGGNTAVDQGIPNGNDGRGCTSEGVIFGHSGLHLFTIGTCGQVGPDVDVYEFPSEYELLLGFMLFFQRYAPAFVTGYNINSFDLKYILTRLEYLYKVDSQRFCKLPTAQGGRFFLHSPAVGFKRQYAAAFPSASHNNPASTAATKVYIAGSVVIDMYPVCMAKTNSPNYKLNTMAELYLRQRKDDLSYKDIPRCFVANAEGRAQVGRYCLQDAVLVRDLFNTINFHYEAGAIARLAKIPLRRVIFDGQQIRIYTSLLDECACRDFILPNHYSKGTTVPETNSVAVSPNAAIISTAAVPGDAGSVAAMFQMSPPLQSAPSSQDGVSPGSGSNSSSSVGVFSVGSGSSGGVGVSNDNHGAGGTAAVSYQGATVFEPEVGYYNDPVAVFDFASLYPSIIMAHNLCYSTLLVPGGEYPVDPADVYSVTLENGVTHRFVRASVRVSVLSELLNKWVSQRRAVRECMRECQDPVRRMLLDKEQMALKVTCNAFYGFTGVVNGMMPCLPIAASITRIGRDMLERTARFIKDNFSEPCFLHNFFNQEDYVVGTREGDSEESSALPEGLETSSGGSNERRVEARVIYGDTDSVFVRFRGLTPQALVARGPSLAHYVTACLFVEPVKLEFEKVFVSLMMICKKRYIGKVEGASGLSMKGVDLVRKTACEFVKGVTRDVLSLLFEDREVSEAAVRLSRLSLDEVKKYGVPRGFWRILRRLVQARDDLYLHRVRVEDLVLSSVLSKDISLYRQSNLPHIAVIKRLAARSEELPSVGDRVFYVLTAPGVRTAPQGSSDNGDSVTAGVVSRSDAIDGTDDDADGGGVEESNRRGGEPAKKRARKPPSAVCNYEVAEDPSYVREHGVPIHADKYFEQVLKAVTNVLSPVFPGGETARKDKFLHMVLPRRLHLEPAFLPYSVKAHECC

In the case of `Cc1oncc1C(=O)Nc1ccc(C(F)(F)F)cc1` [leflunomide, N-(4-trifluoromethylphenyl)-5-methylisoxazol-4-carboxamide], in data set [1], the “viral load in salivary gland, lung and spleen” value is recorded as “significantly reduced viral load”. Besides, the “hepatitis C viral load in peripheral blood” value in the data set on hepatitis C (after six weeks of leflunomide (300 mg daily two days, then 50 mg daily), 3,120,000 copies before) is 1,480,000 copies. Moreover, the “drop in hepatitis C viral load” value with hepatitis C (one patient, six weeks of leflunomide therapy) stood at 50%.
In the case of `C=CC[C@@H]1/C=C(\C)C[C@H](C)C[C@H](OC)[C@H]2O[C@@](O)(C(=O)C(=O)N3CCCC[C@H]3C(=O)O[C@H](/C(C)=C/[C@@H]3CC[C@@H](O)[C@H](OC)C3)[C@H](C)[C@@H](O)CC1=O)[C@H](C)C[C@@H]2OC` [FK 506, tacrolimus], the “production of infectious virus (CMV production)” value in [2] is “no significant inhibition”.
With `Nc1ccn(C[C@@H](CO)OCP(=O)(O)O)c(=O)n1` [Cidofovir], the “Neutropenia, share of recipients” value in data set [3] is “approximately 10%”.
For orientation: IC50 means the concentration that inhibits the measured activity by half. Broadly, the EC50 is the concentration that produces a half-maximal response. On to `Cc1nocc1C(=O)Nc1ccc(C(F)(F)F)cc1` [Compound 99-126, N-(4-trifluoromethylphenyl)-3-methylisoxazol-4-carboxamide], for which the IC50 in data set [4] was 60 µM; in the data set with uninfected cells [7] it was more than 100 µM; in [9] (run with Influenza A (H1N1)) it was 48 µM; in [9] (run with Influenza A (H3N2)), 30 µM; in data set [9] (run with Influenza B), 46 µM; with uninfected cells [15], 100 µM. Further, the IC50 stood at 60 µM in data set [16]; 25 µM in [18]; 63 µM in data set [20] (run with Influenza A (H1N1)); 72 µM in data set [20] (run with Influenza A (H3N2)); 72 µM in data set [20] (run with Influenza B); 11 µM in [21] (run with Parainfluenza Type 3 Virus). For the same molecule, the IC50 in data set [21] (setting [23]) came out at 40 µM; in [22] (setting [24]) it was 20 µM; in data set [22] (MA104) it was 30 µM. The concentration giving a half-maximal response (EC50) in the data set on Rhinovirus Type 5 [5] is more than 100 µM; in the data set with Measles Virus [6] it was 14 µM; in data set [8] it was more than 100 µM; in the data set with Adenovirus Type 1 [10] it was more than 100 µM; in the data set with Adenovirus Type 1 [11], more than 100 µM; in [12], more than 100 µM. Further, the EC50 is 10 µM with Measles Virus [13], 100 µM in the data set with Rhinovirus Type 5 [14], 20 µM in data set [17] and more than 100 µM in data set [19].
With `Cc1oncc1C(=O)Nc1cccc(C(F)(F)F)c1` [Compound 99-127, N-(3-trifluoromethylphenyl)-5-methylisoxazol-4-carboxamide], the EC50 (with Measles Virus [6]; in data set [8]; in [12]; in the data set with Measles Virus [13]; in [17]; in data set [19]) was more than 100 µM each time. For the same molecule, the IC50 in data set [9] (run with Influenza A (H1N1)) was 66 µM; in data set [9] (run with Influenza A (H3N2)), 46 µM; in data set [9] (run with Influenza B), 60 µM; in [16], 60 µM; in [18] it was 30 µM; in data set [20] (run with Influenza A (H1N1)) it was more than 200 µM. Besides, the IC50 was 63 µM in data set [20] (run with Influenza A (H3N2)); more than 200 µM in data set [20] (run with Influenza B); 30 µM in data set [21] (setting [23]); 15 µM in [22] (setting [24]); 20 µM in data set [22] (MA104).
As for `O=C([O-])P(=O)(O)O.[Na+]` [PFA, sodium phosphonoformate], the “quantities of viral DNA synthesized” value in the data set on CMV DNA is on record as “no detectable CMV DNA”. Further, in data set [3], the “toxicities (renal dysfunction, hypomagnesemia, hypokalemia, hypocalcemia, seizures, fever, rash), each, share of recipients” value is “more than 5%”. For the same molecule, at CMV DNA polymerase, the “viral DNA polymerase activity” value is recorded as “complete inhibition”. Further, in the data set on CMV strain VHL/E (200 µM A771726 or 1 mM PFA, 24, 48, 96 hours pi), the “expression of viral proteins pp65, IE1, gB” value is given as “unable to express gB”. The “pp65 and IE1 expression” value with CMV strain VHL/E (1 mM PFA) was “unimpeded”.
